From patent US20030153546A1, “Microbicidal effect of prophyrines in darkness” (priority 1999, published 2003)

Key:
Assay type in all cases: cell-based
E. coli cells [1] = assay: Recovery of porphyrine bonded to E. coli cells after dark incubation and washing steps; conditions: 1 μM porphyrine, 5 minutes
Method: (§1) For this, porphyrines of different chemical structures (see drawing) were incubated with E. coli and S. aureus cells in the dark. The porphyrines were added to aqueous suspension comprising an amount of bacterial cells of 10^8 per ml and stored for 5 minutes in the dark. Finally, the amount of porphyrine bonded to the cells was measured depending on the number of washing […] (the washing was carried out by means of physiological solutions) by chemical extraction followed spectrophotofluorimetric determination.

S. aureus cells [2] = assay: Recovery of porphyrine bonded to S. aureus cells after dark incubation and washing steps; conditions: 1 μM porphyrine, 5 minutes in the dark
Method: as §1

E. coli cells [3] = assay: Inhibition of growth of E. coli cells after 5-minute incubation in the dark (optical density at 650 nm); conditions: growth at 37° C
Method: as §1
(§2) The survival rate of the bacterial cells after incubation with the different porphyrines was determined by diluting 0.3 ml of the suspension with 2.7 ml of the culture medium and recording the optical density at 650 nm depending on the time. The suspensions were kept at 37° C. The percentual inhibition of growth was calculated with reference to a suspension of comparative cells which had been treated with the same method, however had not been added to the porphyrine.

S. aureus cells [4] = assay: Inhibition of growth of S. aureus cells after 5-minute incubation in the dark (optical density at 650 nm); conditions: growth at 37° C
Method: as §1, §2

Row | Structure (SMILES) | recovery (nmol/mg protein) 1 washing step (E. coli cells [1]) [nmol/mg protein] | recovery (nmol/mg protein) 3 washing steps (E. coli cells [1]) [nmol/mg protein] | % bonded after 3 washing steps (E. coli cells [1]) [%] | recovery (nmol/mg protein) no washing (E. coli cells [1]) [nmol/mg protein] | recovery (nmol/mg protein) 1 washing step (S. aureus cells [2]) [nmol/mg protein] | recovery (nmol/mg protein) 3 washing steps (S. aureus cells [2]) [nmol/mg protein] | % bonded after 3 washing steps (S. aureus cells [2]) [%] | recovery (nmol/mg protein) no washing (S. aureus cells [2]) [nmol/mg protein] | inhibition of growth (%) E. coli (E. coli cells [3]; 1 μM porphyrine) [%] | inhibition of growth (%) E. coli (E. coli cells [3]; 10 μM porphyrine) [%] | inhibition of growth (%) S. aureus (S. aureus cells [4]; 1 μM porphyrine) [%] | inhibition of growth (%) S. aureus (S. aureus cells [4]; 10 μM porphyrine) [%]
1 | C[n+]1ccc(-c2c3nc(c(-c4cc[n+](C)cc4)c4ccc([nH]4)c(-c4cc[n+](C)cc4)c4nc(c(-c5cc[n+](C)cc5)c5ccc2[nH]5)C=C4)C=C3)cc1 [T4MPyP] | 0.19 ± 0.04 | 0.05 ± 0.01 | 11.4 | 0.44 ± 0.04 | 0.10 ± 0.01 | 0.11 ± 0.01 | 16.2 | 0.68 ± 0.05 | 0.6 | 3.1 | 3.1 | 7.8
2 | CCCCCC[n+]1ccc(-c2c3nc(c(-c4cc[n+](C)cc4)c4ccc([nH]4)c(-c4cc[n+](C)cc4)c4nc(c(-c5cc[n+](C)cc5)c5ccc2[nH]5)C=C4)C=C3)cc1 [mono-C6] | 1.01 ± 0.12 | 0.39 ± 0.12 | 24.7 | 1.58 ± 0.28 | 2.05 ± 0.11 | 1.02 ± 0.12 | 33.6 | 3.04 ± 0.05 | 0.5 | 14.6 | 5.1 | 8.8
3 | CCCCCCCCCC[n+]1ccc(-c2c3nc(c(-c4cc[n+](C)cc4)c4ccc([nH]4)c(-c4cc[n+](C)cc4)c4nc(c(-c5cc[n+](C)cc5)c5ccc2[nH]5)C=C4)C=C3)cc1 [mono-C10] | 2.78 ± 0.53 | 1.48 ± 0.38 | 40.4 | 3.66 ± 0.071 | 5.70 ± 0.54 | 4.09 ± 0.13 | 57.4 | 7.13 ± 0.25 | 4.6 | 10.7 | 27.8 | 50
4 | CCCCCCCCCCCCCC[n+]1ccc(-c2c3nc(c(-c4cc[n+](C)cc4)c4ccc([nH]4)c(-c4cc[n+](C)cc4)c4nc(c(-c5cc[n+](C)cc5)c5ccc2[nH]5)C=C4)C=C3)cc1 [mono-C14] | 3.06 ± 0.25 | 2.28 ± 0.04 | 42.4 | 5.38 ± 0.06 | 5.53 ± 0.74 | 4.32 ± 0.13 | 65.9 | 6.56 ± 0.40 | 46.1 | 100 | 69.1 | 92.4
5 | CCCCCCCCCCCCCCCCCC[n+]1ccc(-c2c3nc(c(-c4cc[n+](C)cc4)c4ccc([nH]4)c(-c4cc[n+](C)cc4)c4nc(c(-c5cc[n+](C)cc5)c5ccc2[nH]5)C=C4)C=C3)cc1 [mono-C18] | 4.08 ± 0.62 | 2.54 ± 0.38 | 60.5 | 4.20 ± 0.16 |  |  |  |  | 2.7 | 85.7 | 39.8 | 96.6
6 | CCCCCCCCCCCCCCCCCCCCCC[n+]1ccc(-c2c3nc(c(-c4cc[n+](C)cc4)c4ccc([nH]4)c(-c4cc[n+](C)cc4)c4nc(c(-c5cc[n+](C)cc5)c5ccc2[nH]5)C=C4)C=C3)cc1 [mono-C22] | 2.60 ± 0.04 | 3.04 ± 0.34 | 59.4 | 5.12 ± 0.46 | 5.65 ± 0.13 | 4.95 ± 0.30 | 77.5 | 6.39 ± 0.40 | 19.1 | 16.8 | 39.9 | 70.1
7 | C[n+]1ccc(-c2c3nc(c(-c4cc[n+](C)cc4)c4ccc([nH]4)c(-c4cc[n+](Cc5ccccc5)cc4)c4nc(c(-c5cc[n+](C)cc5)c5ccc2[nH]5)C=C4)C=C3)cc1 [mono-benzyl] | 1.67 ± 0.06 | 0.71 ± 0.08 | 28.2 | 2.52 ± 0.13 |  |  |  |  | 0.1 | 13 | 1.6 | 25
8 | CCCCCC[n+]1ccc(-c2c3nc(c(-c4cc[n+](CCCCCC)cc4)c4ccc([nH]4)c(-c4cc[n+](CCCCCC)cc4)c4nc(c(-c5cc[n+](CCCCCC)cc5)c5ccc2[nH]5)C=C4)C=C3)cc1 [tetra-C6] | 1.39 ± 0.23 | 0.94 ± 0.24 | 57.0 | 1.65 ± 0.17 |  |  |  |  |  |  |  | 
